# How the values were obtained:
# [1] = test system: Saccharomyces cerevisiae (BY4741); experiment: EA MicroPlate nutrient stimulation test without methionine (iodo-nitro-tetrazolium violet reduction); format: cell-based; conditions: 30° C., 2 days, visual
# Procedure: In this Example, the response of a yeast to various compounds was tested. The yeast used in these experiments was Saccharomyces cerevisiae (BY4741, obtained from Dr. Mark Johnston, Washington University, St. Louis, Mo.). The genotype of this strain was indicated as being Mat a (i.e., mating type “a”), ura-, his-, leu-, and met-. In these experiments, the ability of this strain to grow in a culture medium without methionine was investigated. Methionine interferes with the ability to test this organism for its utilization of other potential sulfur sources (i.e., if methionine is added to a culture medium the organism preferentially uses it as a sulfur source). The yeast was grown for 48 hours at 30° C. on R2A agar medium (Acumedia). Cells were removed from the agar surface with a sterile cotton swab and suspended at a cell density of 65% transmittance (as read using a BiologTM turbidimeter) in an inoculating fluid containing 50 mM glucose, 0.15 mM uracil, 0.15 mM L-histidine, 0.15 mM L-leucine, 0.15 mM MgCl2, 1.0 mM CaCl2, 2.0 mM NaCl, 1.0 mM KCl, 3.0 mM NH4Cl, 1.0 mM NaH2PO4, 0.1 mM Na2SO4, 0.01% iodo-nitro-tetrazolium violet, 0.01% phytagel (gellan gum), 0.03% pluronic F-68; the pH was adjusted to 6.0. The cell suspension (100 μl/well) was then used to inoculate a BiologTM EA MicroPlateTM, which tests the ability of a cell to be stimulated by a set of 95 different nutrients. The nutrients included within the microarray were: […] One well (A-1) contains no nutrients and is used as a reference (i.e., control) well. After inoculation, the microarray was incubated at 30° C. for 2 days and visually observed.
# [2] = test system: vancomycin-intermediate S. aureus isolates (VISA); conditions: VISA isolates identified since 1996 in Europe, Asia and the U.S.; cited from earlier work
# E. coli (MG1655) = experiment: BAC combination (synergy/antagonism) testing in ES1, ES2 and ES3 MicroPlate sensitivity panels, tetrazolium violet; format: cell-based; conditions: in the presence of 10 μg/ml vancomycin; vancomycin wells at 10, 20, 40 and 80 μg/ml
# Procedure: In this Example, the susceptibility of E. coli (MG1655) was tested in the presence of vancomycin (10 μg/ml) or sulfamethoxazole (235 μg/ml) in microarrays containing various additional compounds. The microarrays were present in three Biolog™ sensitivity test panels, referred to as ES1, ES2 and ES3 MicroPlates™. The organisms were added to a sterile aqueous suspension containing 0.40% NaCl, 0.03% pluronic F68, 0.01% phytagel, and 0.01% tetrazolium violet, to a cell density of 85% transmittance (as measured using a BiologTm turbidimeter). The BAC to be tested was added to the suspension just prior to inoculating the organisms (100 μl/well) into the wells of the microarrays. The wells of these ES MicroPlates™ contained a basal broth medium consisting of tryptone (2 g/L), yeast extract (1 g/L), and NaCl (1 g/L). […]
smiles,measurement,setting,value
N[C@@H](CCC(=O)N[C@@H](CS)C(=O)NCC(=O)O)C(=O)O [glutathione],stimulation of growth/respiration (pink color) in medium without methionine,[1]; glutathione well (reduced form; 100 μM),increased pink color
Cc1ncc(CO)c(CO)c1O [pyridoxine],stimulation of growth/respiration (pink color) in medium without methionine,[1]; pyridoxine well (0.25 μM),increased pink color
CN[C@H](CC(C)C)C(=O)N[C@H]1C(=O)N[C@@H](CC(N)=O)C(=O)N[C@H]2C(=O)N[C@H]3C(=O)N[C@H](C(=O)N[C@H](C(=O)O)c4cc(O)cc(O)c4-c4cc3ccc4O)[C@H](O)c3ccc(c(Cl)c3)Oc3cc2cc(c3O[C@@H]2O[C@H](CO)[C@@H](O)[C@H](O)[C@H]2O[C@H]2C[C@](C)(N)[C@H](O)[C@H](C)O2)Oc2ccc(cc2Cl)[C@H]1O [vancomycin],vancomycin minimum inhibitory concentration [MIC],[2],8 to 16 µg/mL
same,change of sensitivity of E. coli strain to panel compound,E. coli (MG1655),transient increased sensitivity
